Test results taken from patent US9259411B2, “Neuronal circuit-dependent neuroprotection by interaction between nicotinic receptors” (priority 2006, dated 2016).

Legend:
[1] = system: CA1 neurons of hippocampal slices; conditions: cited from earlier work; for effect of DHβE on the neuroprotection (reported): 1 μM DHβE, 10 nM MLA
[2] = system: CA1 neurons of hippocampal slices; assay: Neuroprotection against NMDA excitotoxicity: recovery of population spikes in acute hippocampal slices; format: cell-based, rat; conditions: for Effect on the neuroprotection caused by the substance: 10 μM PD98059: main target ERK-1,2 kinase; for effect of nifedipine on the neuroprotection: 10 μM nifedipine; for effect of PD98059 on the neuroprotection: 50 μM PD98059
Protocol: Male Sprague-Dawley rats (120-200 g) were maintained and sacrificed according to standard procedures reviewed and approved by the Institutional Animal Care and Use Committee. […] Briefly, hippocampi were dissected over ice; transversal 400-μm-thick slices were cut with a manual slicer and immediately transferred to the incubation chamber, thus preserving the neurons in their native environment. The chamber consisted of a temperature-controlled bath surrounding an acrylic plate covered with nylon mesh; the plate was divided into three lanes with independent perfusion. […] C. A bipolar electrode placed in the stratum radiatum was used to stimulate the Shaffer collateral incoming fibers with a constant current for 0.2 msec. The resulting population spike (PS) was recorded in stratum pyramidale with a glass electrode filled with 2 M NaCl, having an impedance of 1-5 M.OMEGA.
About 30 slices from the hippocampi of two rats were distributed equally among three lanes of an incubation chamber. A maximum of seven slices were analyzed per lane for each individual experiment, and on average 21 slices per condition were tested for each experimental condition. […] Because the neurons are maintained in their native environment and in contact with other cells, stimulation with the appropriate stimulus can elicit a PS. One hour after dissection, each slice was stimulated with a stimulus twice the strength required to elicit a threshold PS. This initial response was recorded as PS area (msec×mV) and compared to the final response elicited by the same stimulus strength recorded from the same position after the experimental treatment was finished. The slices were washed for 1 hr with normal ACSF to eliminate lingering drugs and any short-lived effects. […] The percentage of the initial response remaining at the end of the experiment was used as a measure of electrophysiological recovery.
The areas of PSs (mV/msec) were acquired and analyzed with the Labman program. The data were statistically analyzed with SigmaStat v2.03 (SPSS, Chicago, Ill.). One-way analysis of variance (ANOVA) was used whenever the data were distributed normally. […] In these cases, the less powerful nonparametric Kruskal-Wallis one-way ANOVA on ranks was used. The post-hoc test used was the Student-Newman-Keuls test for normally distributed data and Dunn's test for data that was not normally distributed.

[3] = molecular target: α3β4 nAChRs (Homo sapiens, UniProt P30926+P32297); conditions: inhibits the function of α3β4 nAChRs; cited from earlier work
[4] = molecular target: α4β2 nAChRs (Homo sapiens, UniProt P17787+P43681); conditions: inhibits the function of α4β2 nAChRs; cited from earlier work
[5] = molecular target: α7 nAChRs (Rattus norvegicus, UniProt Q05941); conditions: against the α7 nAChRs; cited from earlier work
[6] = molecular target: NMDA receptors; conditions: against the NMDA receptors; cited from earlier work
[7] = system: Akt Ser473; assay: Western blot of phosphorylated Akt in CA1 of hippocampal slices; format: cell-based, rat; conditions: 1 μM DHβE alone, 20 min
Protocol: For immunoassays of phosphorylated proteins, in the initial experiments slices were incubated in the same conditions as for PS determination. Later, the slices were incubated by being submerged in a static chamber on culture insets (Millicell; Millipore, Billerica, Mass.) to avoid drying during timed removal of slices.
Slices were prepared and maintained as described above. Treatments started after 2 hr of incubation in ACSF. […] At the corresponding time, each slice was removed and the CA1 region microdissected, frozen on dry ice, and stored at −80° C. until assayed. […] Final detection was carried out with enhance chemiluminescence methodology (Pierce Supersignal West Dura) and the intensity of the signal measured in a gel documentation system (Versa Doc Model 1000; Bio-Rad). […] Normalization of the signal of the phosphokinase to the total amount of proteins, measured by densitometry of the stained membrane, was used as the relevant parameter, which was the level of activity of the kinase. This method was validated with several isolated cells and tissues and determined a linear relationship between the amount of total protein (as measured by densitometry) and total kinases (as measured by chemiluminescence) within the range of proteins employed in these experiments (4-12 μg total protein). […]

[8] = molecular target: α7 (Homo sapiens, UniProt P36544); conditions: cited from earlier work
[9] = molecular target: α3β4 (Homo sapiens, UniProt P30926+P32297); conditions: cited from earlier work
Sequence of α3β4 (P32297 32-505): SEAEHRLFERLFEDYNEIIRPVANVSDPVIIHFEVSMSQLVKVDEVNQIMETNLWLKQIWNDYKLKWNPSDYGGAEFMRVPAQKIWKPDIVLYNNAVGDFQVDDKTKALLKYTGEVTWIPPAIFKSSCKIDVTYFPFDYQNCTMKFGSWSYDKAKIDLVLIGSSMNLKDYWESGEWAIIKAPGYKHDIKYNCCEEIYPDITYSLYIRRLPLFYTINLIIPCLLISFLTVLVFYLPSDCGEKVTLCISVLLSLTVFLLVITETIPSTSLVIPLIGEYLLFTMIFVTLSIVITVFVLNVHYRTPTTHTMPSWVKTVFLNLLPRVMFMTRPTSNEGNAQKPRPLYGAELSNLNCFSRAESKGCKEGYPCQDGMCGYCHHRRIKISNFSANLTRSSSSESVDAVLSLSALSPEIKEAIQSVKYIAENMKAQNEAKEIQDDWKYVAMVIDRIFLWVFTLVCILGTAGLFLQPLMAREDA
Sequence of α3β4 (P30926 22-498): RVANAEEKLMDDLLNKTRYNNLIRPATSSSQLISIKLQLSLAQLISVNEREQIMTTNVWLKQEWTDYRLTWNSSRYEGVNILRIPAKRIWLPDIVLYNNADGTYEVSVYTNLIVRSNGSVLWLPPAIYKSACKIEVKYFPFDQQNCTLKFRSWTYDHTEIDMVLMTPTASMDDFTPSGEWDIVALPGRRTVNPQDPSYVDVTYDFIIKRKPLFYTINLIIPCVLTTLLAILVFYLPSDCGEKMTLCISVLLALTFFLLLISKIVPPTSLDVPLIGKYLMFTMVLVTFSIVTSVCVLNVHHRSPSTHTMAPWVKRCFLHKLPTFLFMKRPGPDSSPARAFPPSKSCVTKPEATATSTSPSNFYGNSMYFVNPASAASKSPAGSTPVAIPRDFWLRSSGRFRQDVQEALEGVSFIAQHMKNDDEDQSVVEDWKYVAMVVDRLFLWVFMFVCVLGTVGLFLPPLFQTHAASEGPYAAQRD

Sequence of α7 nAChRs (Q05941 23-502): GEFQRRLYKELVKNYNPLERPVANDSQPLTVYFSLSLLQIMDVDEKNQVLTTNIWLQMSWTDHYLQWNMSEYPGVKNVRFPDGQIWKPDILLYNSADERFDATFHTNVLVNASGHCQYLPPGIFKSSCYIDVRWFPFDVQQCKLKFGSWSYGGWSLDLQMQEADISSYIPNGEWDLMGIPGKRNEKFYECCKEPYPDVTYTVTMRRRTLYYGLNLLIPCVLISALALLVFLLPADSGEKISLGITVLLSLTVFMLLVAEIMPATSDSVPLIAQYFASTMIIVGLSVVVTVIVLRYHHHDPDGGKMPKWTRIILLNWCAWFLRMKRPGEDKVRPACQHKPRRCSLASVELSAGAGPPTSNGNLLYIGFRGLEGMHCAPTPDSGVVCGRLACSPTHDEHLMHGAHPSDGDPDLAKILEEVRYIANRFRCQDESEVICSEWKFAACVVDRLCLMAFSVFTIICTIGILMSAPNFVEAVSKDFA
Sequence of α7 (P36544 23-502): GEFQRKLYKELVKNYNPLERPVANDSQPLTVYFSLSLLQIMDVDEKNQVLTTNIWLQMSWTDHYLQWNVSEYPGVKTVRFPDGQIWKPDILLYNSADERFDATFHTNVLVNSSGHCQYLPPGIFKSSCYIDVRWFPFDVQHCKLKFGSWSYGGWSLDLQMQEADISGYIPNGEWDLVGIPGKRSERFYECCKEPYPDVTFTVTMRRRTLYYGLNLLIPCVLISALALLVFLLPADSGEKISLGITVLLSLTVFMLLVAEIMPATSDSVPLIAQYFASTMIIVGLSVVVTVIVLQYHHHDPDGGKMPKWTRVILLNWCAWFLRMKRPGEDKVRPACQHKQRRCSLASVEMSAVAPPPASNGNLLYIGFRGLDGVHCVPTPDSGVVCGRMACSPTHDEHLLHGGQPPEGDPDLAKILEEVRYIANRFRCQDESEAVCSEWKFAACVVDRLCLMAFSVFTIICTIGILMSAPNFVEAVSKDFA
Sequence of α4β2 nAChRs (P43681 29-627 limits assumed): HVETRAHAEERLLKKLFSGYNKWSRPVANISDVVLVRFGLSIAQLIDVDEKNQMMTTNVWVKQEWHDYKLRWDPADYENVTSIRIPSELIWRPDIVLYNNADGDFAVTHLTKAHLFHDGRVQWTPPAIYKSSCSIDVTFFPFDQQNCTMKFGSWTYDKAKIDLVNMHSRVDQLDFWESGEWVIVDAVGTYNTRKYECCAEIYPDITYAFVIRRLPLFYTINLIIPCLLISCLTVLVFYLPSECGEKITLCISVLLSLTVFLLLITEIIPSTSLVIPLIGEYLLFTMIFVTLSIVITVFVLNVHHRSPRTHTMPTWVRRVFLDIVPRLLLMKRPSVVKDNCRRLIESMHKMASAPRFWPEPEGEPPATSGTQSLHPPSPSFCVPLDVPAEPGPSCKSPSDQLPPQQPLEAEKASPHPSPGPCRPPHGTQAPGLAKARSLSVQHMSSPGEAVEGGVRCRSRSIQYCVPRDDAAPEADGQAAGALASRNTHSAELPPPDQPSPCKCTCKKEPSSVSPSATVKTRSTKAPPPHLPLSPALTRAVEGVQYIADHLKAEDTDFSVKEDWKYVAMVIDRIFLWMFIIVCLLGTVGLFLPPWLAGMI
Sequence of α4β2 nAChRs (P17787 26-502): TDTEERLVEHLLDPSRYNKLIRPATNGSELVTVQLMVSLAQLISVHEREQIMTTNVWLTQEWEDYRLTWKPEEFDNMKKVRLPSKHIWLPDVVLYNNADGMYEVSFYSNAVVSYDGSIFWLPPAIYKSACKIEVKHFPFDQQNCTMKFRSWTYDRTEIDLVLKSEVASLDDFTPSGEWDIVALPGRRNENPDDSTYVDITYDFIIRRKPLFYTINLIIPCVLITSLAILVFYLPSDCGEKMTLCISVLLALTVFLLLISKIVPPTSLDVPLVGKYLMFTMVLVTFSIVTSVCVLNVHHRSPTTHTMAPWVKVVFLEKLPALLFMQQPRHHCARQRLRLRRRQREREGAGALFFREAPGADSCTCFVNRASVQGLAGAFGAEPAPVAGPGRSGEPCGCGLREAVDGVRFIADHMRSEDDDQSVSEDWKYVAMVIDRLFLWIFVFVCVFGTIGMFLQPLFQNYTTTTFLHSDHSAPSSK
Sequence of α3β4 nAChRs (P32297 32-505): as the sequence (P32297 32-505) above
Sequence of α3β4 nAChRs (P30926 22-498): as the sequence (P30926 22-498) above

For CCN1C[C@]2(COC(=O)c3ccccc3N3C(=O)C[C@H](C)C3=O)CC[C@H](OC)[C@@]34[C@@H]5C[C@H]6[C@H](OC)[C@@H]5[C@](O)(C[C@@H]6OC)[C@@](O)([C@@H](OC)[C@H]23)[C@@H]14 [MLA, methyllycaconitine], the “effect of DHβE on the neuroprotection (reported)” value [1] is given as “blocked”, the “neuroprotection (reported)” value ([1]; literature report) is given as “neuroprotective” and the “Effect on the neuroprotection caused by the substance: 10 μM PD98059” value [2] is given as 0.

For CN1CCCC1c1cccnc1 (stereo not drawn) [Nicotine, nicotine], the “effect of DHβE on the neuroprotection (reported)” value [1] is listed as “blocked”, the “effect of Ro-31-8220 on the neuroprotection” value ([2]; 100 nM Ro-31-8220, 2 μM 4R, 1 μM nicotine) is listed as “did inhibit” and the “effect of APV on the neuroprotection” value ([2]; 0.4 μM APV, 2:M 4R or 1:M nicotine) is listed as “only a nonsignificant decrement”. For the same compound, the “effect of KT5720 on the neuroprotection” value ([2]; 0.5 μM KT5720, 2 μM 4R, 1 μM nicotine) was “partially decreased”, the recovery ([2]; 1 μM during 1 hr followed by 0.5 mM NMDA) was “more than 80%” and the “effect of KN-62 on the neuroprotection” value ([2]; 9 μM KN-62) was “did not prevent a significant neuroprotection”. For the same compound, the “effect of nifedipine on the neuroprotection” value [2] was “did not inhibit”, the “effect of DNQX on the neuroprotection” value ([2]; 50 μM DNQX, 2 μM 4R, 1 μM nicotine) was “recovered significantly more activity” and the “effect of PD98059 on the neuroprotection” value ([2]; 2 μM 4R, 1 μM nicotine) was “annulled”. The “Effect on the neuroprotection caused by the substance: 9 μMKN-62” value ([2]; main target CaM kinases) was 0, the “Effect on the neuroprotection caused by the substance: 10 μM Nifedipine” value ([2]; main target L-type VGCC) was 0 and the “Effect on the neuroprotection caused by the substance: 4 μMAPV” value ([2]; main target NMDA receptors) was 0. For the same compound, the “Effect on the neuroprotection caused by the substance: 50 μM Vesarnicol” value ([2]; main target Synaptic ACh release) was 0.

For Cn1cc(C2=C(c3ccc(Cl)cc3Cl)C(=O)NC2=O)c2ccccc21 [SB 216763], the neuroprotection ([2]; 100 μM applied 1 hr before or after 0.5 mM NMDA, n=21) was “neuroprotective only when applied after NMDA”.

For CC1=CC(O)CC(C)(O)C=CC(C(C)C)CCC(C)=CCC1 [4R, (1S,2E,4R,6R,7E,11E)-cembra-2,7,11-triene-4,6-diol], the IC50 [3] is given as 2.2 µM and the IC50 [4] is given as 19.1 µM.

In the case of CC12CC3CC(C)(C1)CC(N)(C3)C2 [Memantine, memantine], the “effect of DHβE on the neuroprotection” value ([2]; 1 μM DHβE, 2 μM 4R) is reported as “inhibited”, the “effect of nifedipine on the neuroprotection” value [2] is reported as “blocked” and the “effect of PD98059 on the neuroprotection” value ([2]; 2 μM 4R, 1 μM nicotine) is reported as “not inhibited”. The “shape of the dose-response curve for neuroprotection” value ([2]; FIGS. 20A-B) was “bell-shaped”, the “concentrations of dose-dependent neuroprotection” value ([2]; effect decreases at higher concentrations) was “below 3 μM” and the “effect of inhibitors of PI3-kinase on the neuroprotection” value ([2]; inhibitors of PI3-kinase) was “blocked”. For the same compound, the “Effect on the neuroprotection caused by the substance: 10 μM PD98059” value [2] was 0, the “Effect on the neuroprotection caused by the substance: 0.1 μM Ro31 -8220” value ([2]; main target PKC) was 0 and the “effect of vesamicol on the neuroprotection” value ([2]; vesamicol) was “blocked”. For the same compound, the IC50 [5] was 0.34 µM and the IC50 [6] was 5.1 µM.

In the case of CO[C@H]1CC=C2CCN3CCC4=C(CC(=O)OC4)[C@]23C1 [DHβE, Dihydro-Beta-erithroidine], the Akt phosphorylation [7] is listed as “did not affect”, the Ki [8] is listed as 25 to 57 µM and the Ki [9] is listed as 218 µM.
